Converted amounts (≈) assume the structure as drawn. A value given as a limit tells only on which side of the number the result lay.

The subject of the first test is S. aureus A798. The experiment in a line: Bacterial growth minimal inhibitory concentrations (microdilution, cation-adjusted Mueller-Hinton Broth). Conditions: Staphylococcus aureus, microdilution. Type of test: cell-based. The method, then: Minimal inhibitory concentrations (MICs; mg/l) were determined in cation-adjusted Mueller-Hinton Broth by a microdilution method following the description given in “Methods for Dilution Antimicrobial Susceptibility Tests for Bacteria that Grow Aerobically”, Approved standard, 7th ed., Clinical and Laboratory Standards Institute (CLSI) Document M7-A7, Wayne, Pa., USA, 2006.
As for `COc1cnc2ccc(F)c(C[C@H](O)[C@@H]3CC[C@@H](NCc4cc5c(nn4)OCCO5)CO3)c2n1` [Example 13, (1S)-1-{(2S,5R)-5-[(6,7-dihydro-[1,4]dioxino[2,3-c]pyridazin-3-ylmethyl)-amino]tetrahydro-pyran-2-yl}-2-(6-fluoro-3-methoxy-quinoxalin-5-yl)-ethanol], the minimal inhibitory concentration (MIC) was not above 0.031 µg/mL.
As for `COc1ccc2ccc(F)c(C[C@H](O)[C@@H]3CC[C@@H](NCc4cc5c(cn4)OCS5)CO3)c2n1` [Example 9, (1S)-2-(7-fluoro-2-methoxy-quinolin-8-yl)-1-{(2S,5R)-5-[(3-oxa-1-thia-5-aza-indan-6-ylmethyl)-amino]-tetrahydro-pyran-2-yl}-ethanol], the minimal inhibitory concentration (MIC) was not above 0.031 µg/mL.
Still for that read-out and setting: for `[2H]C(c1c(F)cnc2ccc(OC)nc12)[C@H](O)[C@@H]1CC[C@@H](NCc2cc3c(cn2)OCCS3)CO1` (stereo partly drawn) [Example 21, (S)-1-((2S,5R)-5-(((2,3-dihydro-[1,4]oxathiino[2,3-c]pyridin-7-yl)methyl)amino)tetrahydro-2H-pyran-2-yl)-2-(3-fluoro-6-methoxy-1,5-naphthyridin-4-yl)ethanol-2-d1] the value was not above 0.031 µg/mL.
The compound `COc1cnc2ccc(F)c(C[C@H](O)[C@@H]3CC[C@@H](NCc4cc5c(nn4)OCCS5)CO3)c2n1` [Example 15, (1S)-1-{(2S,5R)-5-[(6,7-dihydro-8-oxa-5-thia-1,2-diaza-naphthalen-3-ylmethyl)-amino]-tetrahydro-pyran-2-yl}-2-(6-fluoro-3-methoxy-quinoxalin-5-yl)-ethanol] displayed a minimum inhibitory concentration (MIC) not above 0.031 µg/mL.
Still for that read-out and setting: under `[2H]C(N[C@@H]1CC[C@@H]([C@@H](O)Cc2c(F)cnc3ccc(OC)nc23)OC1)c1cc2c(cn1)OCCO2` (stereo partly drawn) [Example 16, (1S)-1-((2S,5R)-5-(((2,3-dihydro-[1,4]dioxino[2,3-c]pyridin-7-yl)methyl-d1)amino)tetrahydro-2H-pyran-2-yl)-2-(3-fluoro-6-methoxy-1,5-naphthyridin-4-yl)ethanol] stands not above 0.031 µg/mL.
The same measure, in the same setting: under `COc1ccc2ncc(F)c(C[C@H](O)[C@@H]3CC[C@@H](NCc4cc5c(cn4)OCCS5)CO3)c2n1` [Example 6, (1S)-1-{(2S,5R)-5-[(2,3-dihydro-4-oxa-1-thia-6-aza-naphthalen-7-ylmethyl)-amino]-tetrahydro-pyran-2-yl}-2-(3-fluoro-6-methoxy-[1,5]naphthyridin-4-yl)-ethanol] stands not above 0.031 µg/mL.
On the same count and under the same terms, for `COc1cnc2ccc(F)c(C[C@H](O)[C@@H]3CC[C@@H](NCc4cc5c(cn4)OCCO5)CO3)c2n1` [Example 12, (1S)-1-{(2S,5R)-5-[(2,3-dihydro-[1,4]dioxino[2,3-c]pyridin-7-ylmethyl)-amino]-tetrahydro-pyran-2-yl}-2-(6-fluoro-3-methoxy-quinoxalin-5-yl)-ethanol] the value was not above 0.031 µg/mL.
Compound `COc1ccc2ncc(F)c(C[C@H](O)[C@@H]3CC[C@@H](NCc4cc5c(cn4)OCS5)CO3)c2n1` [Example 8, (1S)-2-(3-fluoro-6-methoxy-[1,5]naphthyridin-4-yl)-1-{(2S,5R)-5-[(3-oxa-1-thia-5-aza-indan-6-ylmethyl)-amino]tetrahydro-pyran-2-yl}-ethanol] yielded an MIC not above 0.031 µg/mL.
In the case of `[2H]C([2H])(N[C@@H]1CC[C@@H]([C@@H](O)Cc2c(F)cnc3ccc(OC)nc23)OC1)c1cc2c(cn1)OCCO2` [Example 24, (1S)-1-((2S,5R)-5-(((2,3-dihydro-[1,4]dioxino [2,3-c]pyridin-7-yl)methyl-d2)amino)tetrahydro-2H-pyran-2-yl)-2-(3-fluoro-6-methoxy-1,5-naphthyridin-4-yl)ethanol], the MIC is not above 0.031 µg/mL.
Same read-out and setting: under `COc1cnc2ccc(F)c(C[C@H](O)[C@@H]3CC[C@@H](NCc4cc5c(cn4)OCCS5)CO3)c2n1` [Example 14, (1S)-1-{(2S,5R)-5-[(2,3-dihydro-4-oxa-1-thia-6-aza-naphthalen-7-ylmethyl)-amino]-tetrahydro-pyran-2-yl}-2-(6-fluoro-3-methoxy-quinoxalin-5-yl)-ethanol] stands not above 0.031 µg/mL; under `COc1ccc2nccc(C[C@H](O)[C@@H]3CC[C@@H](NCc4cc5c(nn4)OCCO5)CO3)c2n1` [Example 2, (1S)-1-{(2S,5R)-5-[(6,7-dihydro-[1,4]dioxino[2,3-c]pyridazin-3-ylmethyl)-amino]-tetrahydro-pyran-2-yl}-2-(6-methoxy-[1,5]naphthyridin-4-yl)-ethanol], 0.25 µg/mL (≈ 0.551 µM).
`[2H]C(N[C@@H]1CC[C@@H]([C@@H](O)Cc2c(F)cnc3ccc(OC)nc23)OC1)c1cc2c(nn1)OCCS2` (stereo partly drawn) [Example 23, (S)-1-{(2S,5R)-5-[(6,7-dihydro-8-oxa-5-thia-1,2-diaza-naphthalen-3-ylmethyl-d1)-amino]-tetrahydro-pyran-2-yl}-2-(3-fluoro-6-methoxy-[1,5]naphthyridin-4-yl)-ethanol]: the minimum inhibitory concentration (MIC) is not above 0.031 µg/mL.
As for `COc1ccc2ccc(F)c(C[C@H](O)[C@@H]3CC[C@@H](NCc4cc5c(cn4)OCCO5)CO3)c2n1` [Example 5, (1S)-1-{(2S,5R)-5-[(2,3-dihydro-[1,4]dioxino[2,3-c]pyridin-7-ylmethyl)-amino]-tetrahydro-pyran-2-yl}-2-(7-fluoro-2-methoxy-quinolin-8-yl)-ethanol], the MIC is not above 0.031 µg/mL.
`COc1ccc2ncc(F)c(C[C@H](O)[C@@H]3CC[C@@H](NCc4cc5c(nn4)OCCS5)CO3)c2n1` [Example 11, (1S)-1-{(2S,5R)-5-[(6,7-dihydro-8-oxa-5-thia-1,2-diaza-naphthalen-3-ylmethyl)-amino]-tetrahydro-pyran-2-yl}-2-(3-fluoro-6-methoxy-[1,5]naphthyridin-4-yl)-ethanol] came in with an MIC not above 0.031 µg/mL.
Compound `[2H]C(N[C@@H]1CC[C@@H]([C@@H](O)Cc2c(F)cnc3ccc(OC)nc23)OC1)c1cc2c(cn1)OCCS2` (stereo partly drawn) [Example 19, (S)-1-((2S,5R)-5-(((2,3-dihydro-[1,4]oxathiino[2,3-c]pyridin-7-yl)methyl-d1)amino)tetrahydro-2H-pyran-2-yl)-2-(3-fluoro-6-methoxy-1,5-naphthyridin-4-yl)ethanol] registered an MIC not above 0.031 µg/mL.
On the same count and under the same terms, under `[2H]C(c1c(F)cnc2ccc(OC)nc12)[C@H](O)[C@@H]1CC[C@@H](NCc2cc3c(cn2)OCCO3)CO1` (stereo partly drawn) [Example 20, (1S)-1-((2S,5R)-5-(((2,3-dihydro-[1,4]dioxino-[2,3-c]pyridin-7-yl)methyl)amino)tetrahydro-2H-pyran-2-yl)-2-(3-fluoro-6-methoxy-1,5-naphthyridin-4-yl)ethanol-2-d1] stands not above 0.031 µg/mL.
For `COc1ccc2ncc(F)c(C[C@H](O)[C@@H]3CC[C@@H](NCc4cc5c(cn4)OCCC5)CO3)c2n1` [Example 10, (1S)-1-{(2S,5R)-5-[(3,4-dihydro-2H-pyrano[2,3-c]pyridin-6-ylmethyl)-amino]-tetrahydro-pyran-2-yl}-2-(3-fluoro-6-methoxy-[1,5]naphthyridin-4-yl)-ethanol], the MIC is not above 0.031 µg/mL.

The test is the same for the next values; noted with them: microdilution.
In the case of “(S)-((1S,5R)-5-(((2,3-dihydro-[1,4]oxathiino[2,3-c]pyridin-7-yl)methyl)amino)tetrahydro-2H-pyran-2-yl)-2-(3-fluoro-6-methoxy-1,5-naphthyridin-4-yl)ethanol-1-d1 [Example 22]”, the “MIC for S. aureus A798” value is “≦0.031 mg/l”.
For the compound “(1S)-1-((2S,5R)-5-(((2,3-dihydro-[1,4]dioxino-2,2,3,3-d4-[2,3-c]pyridin-7-yl)methyl)amino)tetrahydro-2H-pyran-2-yl)-2-(3-fluoro-6-methoxy-1,5-naphthyridin-4-yl)ethanol [Example 17]”, the “MIC for S. aureus A798” value is “≦0.031 mg/l”.

By MIC is commonly meant the least concentration at which growth counts as inhibited. Low readings indicate greater potency, high ones weaker potency.
